Measured values published in patent publication US8217189B2, “Chromenone potassium channel blockers and uses thereof” (Bionomics Limited, priority 2006, dated 2012).

Molecular target: T1, human Kv1.3 ion channel (Homo sapiens, UniProt P22001)
T1 construct: Human Jurkat cells (which endogenously express hKv1.3) were used in place of rat L929 cells; endogenous in cells; host or cells: human Jurkat cells
Assay: Inhibition of Kv1.3 currents, planar patch clamp in human Jurkat cells
Assay type: cell-based
Conditions: Jurkat cells endogenously expressing hKv1.3, averaged dose response data from 3 or more cells
Experimental: Potency of compounds to inhibit the human Kv1.3 ion channel were determined as follows:
EC50 values for inhibition of Kv1.3 currents were determined by the method according to Schmitz et al (2005) Molecular Pharmacology 68, 1254-1270 with the following differences:
1. Human Jurkat cells (which endogenously express hKv1.3) were used in place of rat L929 cells.
2. All electrophysiology was performed using planar patch clamp (Port-A-Patch, Nanion Technologies Gmbh, Munich) in contrast to conventional patch clamp.
3. EC50 values shown were determined from averaged dose response data obtained from 3 or more cells.

T1 sequence (P22001 whole entry): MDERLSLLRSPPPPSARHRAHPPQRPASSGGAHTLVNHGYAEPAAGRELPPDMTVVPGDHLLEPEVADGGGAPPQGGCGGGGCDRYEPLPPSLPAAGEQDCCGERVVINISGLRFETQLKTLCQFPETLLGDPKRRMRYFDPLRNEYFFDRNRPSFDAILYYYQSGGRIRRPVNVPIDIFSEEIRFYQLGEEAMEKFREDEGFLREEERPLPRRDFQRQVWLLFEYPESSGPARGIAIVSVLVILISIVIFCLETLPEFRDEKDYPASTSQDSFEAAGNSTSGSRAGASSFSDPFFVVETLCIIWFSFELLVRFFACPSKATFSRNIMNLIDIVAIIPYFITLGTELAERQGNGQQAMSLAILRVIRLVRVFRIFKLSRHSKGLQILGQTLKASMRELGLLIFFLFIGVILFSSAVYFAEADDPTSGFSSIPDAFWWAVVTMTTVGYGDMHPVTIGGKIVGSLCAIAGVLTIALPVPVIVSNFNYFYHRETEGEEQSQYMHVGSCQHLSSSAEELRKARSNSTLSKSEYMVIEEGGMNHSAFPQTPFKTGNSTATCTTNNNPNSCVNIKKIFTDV

| Compound | EC50 |
| --- | --- |
| Cc1c2ccoc2c(OCCCc2ccccc2)c2oc(CS(C)(=O)=O)cc(=O)c12 [Example 9, 7-Methanesulfonylmethyl-4-methyl-9-(phenyl-propoxy)-furo[3,2-g]chromen-5-one] | 200 nM |
| CN(C)Cc1cc(=O)c2c(OCCCCOc3ccccc3)c3ccoc3cc2o1 [Example 5, 7-Dimethylaminomethyl-4-(4-phenoxybutoxy)-furo[3,2-g]chromen-5-one] | 1420 nM |
| COc1c2ccoc2c(OCCCc2ccccc2)c2oc(CN(C)C)cc(=O)c12 [7 c)] | 270 nM |
| Cc1c2ccoc2c(OCC[C@@H](C)c2ccccc2)c2oc(CN(C)C)cc(=O)c12 [8 d)] | 14 nM |
| Cc1c2ccoc2c(OCCCc2ccccc2)c2oc(CN3CCOCC3)cc(=O)c12 [Example 3, 4-Methyl-7-(morpholin-4-ylmethyl)-9-(3-phenylpropoxy)furo[3,2-g]chromen-5-one] | 190 nM |

Further compounds by falling EC50, results first:

| EC50 | Compound |
| --- | --- |
| 30 nM | CSCc1cc(=O)c2c(C)c3ccoc3c(OCCCc3ccccc3)c2o1 [1 c)] |
| 29 nM | Cc1c2ccoc2c(OCCCc2ccccc2)c2oc(CN(C)C)cc(=O)c12 [Example 2, 7-Dimethylaminomethyl-4-methyl-9-(3-phenylpropoxy)furo[3,2-g]chromen-5-one] |
| 28 nM | Cc1c2ccoc2c(OCCCc2ccc(F)cc2)c2oc(CN(C)C)cc(=O)c12 [6 c)] |
